Assay [1] has as its target Kelch domain of human KEAP1 (321-624 aa) (Homo sapiens (Human), UniProt Q14145). Briefly: KEAP1 KELCH ThermoFluor binding assay.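 Also: Ligand-induced melting temperature shift of E. coli-expressed KEAP1 Kelch protein, Kd estimated from concentration-response curves of ΔTm.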 The conditions noted are these: KEAP Kelch […], 1,8-ANS, pH 7.0, average of results obtained, read-out: Tf Kd.
In assay [2] the test system is Glo-Response ARE-luc2P HEK293 cell line. Nature of the assay: ARE luciferase reporter cell-based assay.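 Also: luciferase signal tracks Nrf2 activation of the ARE once compounds disrupt KEAP1-Nrf2 binding, read with One-Glo reagent, DMSO serving as low control.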 The conditions noted are these: Homo sapiens, HEK293, 24 h, average of results obtained.

pEC50, pKd: −log10 of the molar value.

Chain of Kelch domain of human KEAP1 (321-624 aa) (Q14145 321-624): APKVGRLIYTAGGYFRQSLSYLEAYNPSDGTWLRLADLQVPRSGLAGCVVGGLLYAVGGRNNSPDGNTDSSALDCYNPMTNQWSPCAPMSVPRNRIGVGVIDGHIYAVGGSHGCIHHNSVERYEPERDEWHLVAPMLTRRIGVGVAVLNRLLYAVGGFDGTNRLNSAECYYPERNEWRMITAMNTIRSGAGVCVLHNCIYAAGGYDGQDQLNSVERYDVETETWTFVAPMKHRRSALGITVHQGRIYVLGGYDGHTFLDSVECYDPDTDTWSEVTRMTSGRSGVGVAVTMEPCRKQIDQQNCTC

As to `Cc1ccc([C@H](c2ccn3c(C(F)(F)F)nnc3c2C)C(C)(C)C(=O)O)cc1CN1CC2(CCOCC2)Oc2nc(OCCCOCCCO)ccc2S1(=O)=O` (single isomer, unassigned) [Example 608, (*R)-3-(3-((7′-(3-(3-Hydroxypropoxy)propoxy)-1′,1′-dioxido-2,3,5,6-tetrahydrospiro[pyran-4,4′-pyrido[2,3-b][1,4,5]oxathiazepin]-2′(3′H)-yl)methyl)-4-methylphenyl)-2,2-dimethyl-3-(8-methyl-3-(trifluoromethyl)-[1,2,4]triazolo[4,3-a]pyridin-7-yl)propanoic Acid], in assay [1], the pKd was above 9.00. In addition, the pEC50 in assay [2] is 8.04.
With `Cc1ccc([C@@H](c2ccn3c(C(F)F)nnc3c2C)C(C)(C)C(=O)O)nc1CN1CC2(CC2)Oc2nc(OCCN3CCCCC3)c(C)cc2S1(=O)=O` (single isomer, unassigned) [Example 356, (*S)-3-(3-(Difluoromethyl)-8-methyl-[1,2,4]triazolo[4,3-a]pyridin-7-yl)-2,2-dimethyl-3-(5-methyl-6-((8′-methyl-1′,1′-dioxido-7′-(2-(piperidin-1-yl)ethoxy)spiro[cyclopropane-1,4′-pyrido[2,3-b][1,4,5]oxathiazepin]-2′(3′H)-yl)methyl)pyridin-2-yl)propanoic Acid], the pKd in assay [1] was 5.45. For the same compound, the pEC50 in assay [2] was 7.93.
The corresponding values for `Cc1cnc([C@@H](c2ccn3c(C(F)(F)F)nnc3c2C)C(C)(C)C(=O)O)cc1CN1CC2(CC2)Oc2nc(OCCN3CCCC3)c(C)cc2S1(=O)=O` (single isomer, unassigned) [Example 590, (*S)-2,2-Dimethyl-3-(8-methyl-3-(trifluoromethyl)-[1,2,4]triazolo[4,3-a]pyridin-7-yl)-3-(5-methyl-4-((8′-methyl-1′,1′-dioxido-7′-(2-(pyrrolidin-1-yl)ethoxy)spiro[cyclopropane-1,4′-pyrido[2,3-b][1,4,5]oxathiazepin]-2′(3′H)-yl)methyl)pyridin-2-yl)propanoic Acid] are above 9.00 and 7.48.
With `Cc1cnc2c(c1)S(=O)(=O)N(Cc1cc([C@H](c3ccn4c(C(F)F)nnc4c3C)C(C)(C)C(=O)O)ccc1C)CC1(CC1)O2` (single isomer, unassigned) [Example 561, (*R)-3-(3-(Difluoromethyl)-8-methyl-[1,2,4]triazolo[4,3-a]pyridin-7-yl)-2,2-dimethyl-3-(4-methyl-3-((8′-methyl-1′,1′-dioxidospiro[cyclopropane-1,4′-pyrido[2,3-b][1,4,5]oxathiazepin]-2′(3′H)-yl)methyl)phenyl)propanoic Acid], the pKd in assay [1] is 7.28. Besides, the negative logarithm of the EC50 (pEC50) in assay [2] was 6.59.
For the compound `Cc1cnc([C@H](c2ccn3c(C(F)F)nnc3c2C)C(C)(C)C(=O)O)cc1CN1CC2(CC2)Oc2nc(OCCN3CCCC3)c(C)cc2S1(=O)=O` (single isomer, unassigned) [Example 635, (*R)-3-(3-(Difluoromethyl)-8-methyl-[1,2,4]triazolo[4,3-a]pyridin-7-yl)-2,2-dimethyl-3-(5-methyl-4-((8′-methyl-1′,1′-dioxido-7′-(2-(pyrrolidin-1-yl)ethoxy)spiro[cyclopropane-1,4′-pyrido[2,3-b][1,4,5]oxathiazepin]-2′(3′H)-yl)methyl)pyridin-2-yl)propanoic Acid], the pKd in assay [1] was 5.92. Further, the pEC50 in assay [2] was 5.44.
For `Cc1ccc([C@H](c2ccn3c(C(F)F)nnc3c2C)C(C)(C)C(=O)O)nc1CN1CC2(CC2)Oc2nc(OCCN3CCCCC3)c(C)cc2S1(=O)=O` (single isomer, unassigned) [Example 357, (*R)-3-(3-(difluoromethyl)-8-methyl-[1,2,4]triazolo[4,3-a]pyridin-7-yl)-2,2-dimethyl-3-(5-methyl-6-((8′-methyl-1′,1′-dioxido-7′-(2-(piperidin-1-yl)ethoxy)spiro[cyclopropane-1,4′-pyrido[2,3-b][1,4,5]oxathiazepin]-2′(3′H)-yl)methyl)pyridin-2-yl)propanoic Acid] the same measures were above 9.00 and 6.34.
On to `Cc1ccc([C@H](CC(=O)O)c2ccn3c(C(F)(F)F)nnc3c2C)cc1CN1CC(C)(C)Oc2ccccc2S1(=O)=O` (single isomer, unassigned) [Example 284, 3-(3-((4,4-Dimethyl-1,1-dioxido-3,4-dihydro-2H-benzo[b][1,4,5]oxathiazepin-2-yl)methyl)-4-methylphenyl)-3-(8-methyl-3-(trifluoromethyl)-[1,2,4]triazolo[4,3-a]pyridin-7-yl)propanoic Acid], for which the pKd in assay [1] was 8.78. Also, the pEC50 in assay [2] was 6.67.
For `Cc1ccc([C@H](c2ccn3c(C(F)(F)F)nnc3c2C)C(C)(C)C(=O)O)cc1CN1CC2(CCOCC2)Oc2nc(N[C@@H](C)CN3CCOCC3)c(C)cc2S1(=O)=O` (single isomer, unassigned) [Example 363, (*R)-2,2-Dimethyl-3-(4-methyl-3-((8′-methyl-7′-(((S-1-morpholinopropan-2-yl)amino)-1′,1′-dioxido-2,3,5,6-tetrahydrospiro[pyran-4,4′-pyrido[2,3-b][1,4,5]oxathiazepin]-2′(3′H)-yl)methyl)phenyl)-3-(8-methyl-3-(trifluoromethyl)-[1,2,4]triazolo[4,3-a]pyridine-7-yl)propanoic Acid] the same measures were above 9.00 and 7.89.
For the compound `Cc1ccc([C@H](CC(=O)O)c2ccn3c(C(F)(F)F)nnc3c2C)cc1CN1CC2(CC2)Oc2ncccc2S1(=O)=O` (single isomer, unassigned) [Example 7, (*S)-3-(3-((1′,1′-Dioxidospiro[cyclopropane-1,4′-pyrido[2,3-b][1,4,5]oxathiazepin]-2′(3′H)-yl)methyl)-4-methylphenyl)-3-(8-methyl-3-(trifluoromethyl)-[1,2,4]triazolo[4,3-a]pyridin-7-yl)propanoic Acid], the pKd in assay [1] was 9.90. The pEC50 in assay [2] is 7.13.
The corresponding values for `Cc1cnc([C@@H](c2ccn3c(C(F)F)nnc3c2C)C(C)(C)C(=O)O)cc1CN1CC2(CC2)Oc2nc(OCCN3CCCC3)c(C)cc2S1(=O)=O` (single isomer, unassigned) [Example 636, (*S)-3-(3-(Difluoromethyl)-8-methyl-[1,2,4]triazolo[4,3-a]pyridin-7-yl)-2,2-dimethyl-3-(5-methyl-4-((8′-methyl-1′,1′-dioxido-7′-(2-(pyrrolidin-1-yl)ethoxy)spiro[cyclopropane-1,4′-pyrido[2,3-b][1,4,5]oxathiazepin]-2′(3′H)-yl)methyl)pyridin-2-yl)propanoic Acid] are above 9.00 and 7.40.
The corresponding values for `Cc1ccc([C@H](CC(=O)O)c2cc(OC3CC3)c3c(c2)nnn3C)cc1CN1C[C@H]2CCCN2c2ncccc2S1(=O)=O` (single isomer, unassigned) [Example 5, (*S)-3-(7-Cyclopropoxy-1-methyl-1H-benzo[d][1,2,3]triazol-5-yl)-3-(3-(((R)-5,5-dioxido-7a,8,9,10-tetrahydropyrido[2,3-f]pyrrolo[2,1-d][1,2,5]thiadiazepin-6(7H)-yl)methyl)-4-methylphenyl)propanoic Acid] are 9.29 and 6.96.

The record behind these values is patent US10947252B2, “Inhibitors of KEAP1-Nrf2 protein-protein interaction” (Janssen Pharmaceutica NV, priority 2018, dated 2021).
